Measurements: patent publication US11666640B2, “Glucose oxidase compositions as a neonate anticonvulsant” (PENN STATE RESEARCH FOUNDATION, priority 2018, dated 2023)
Entries after “also recorded” stand apart in the source; their conditions may differ.

Legend:
[1] = test system: cultured cortical neurons; assay: Epileptiform burst activity in cultured cortical neurons (whole-cell patch-clamp); format: cell-based, mouse; settings: CTZ 10 μM, 24 hrs, blocker 100 μM
Method: Mouse cortical neurons were prepared from newborn C57BL/6 mice as previously described. Qi et al., “Cyclothiazide induces robust epileptiform activity in rat hippocampal neurons both in vitro and in vivo” The Journal Of Physiology 571:605-618 (2006). Briefly, the newborn mouse cerebral cortices were dissected out in ice-cold HEPES-buffered saline solution, washed and digested with 0.05% trypsin-EDTA at 37° C. for 20 min. After deactivation of trypsin with serum-containing medium, cells were centrifuged, resuspended, and seeded on a monolayer of cortical astrocytes at a density of 10,000 cells/cm^2 in 24-well plates. The neuronal culture medium contained MEM (500 ml, Invitrogen), 5% fetal bovine serum (Atlanta Biologicals), 10 ml B-27 supplement (Invitrogen), 100 mg NaHCO3, 2 mM Glutamax (Invitrogen), and 25 units/ml penicillin & streptomycin. AraC (4 μM, Sigma) was added to inhibit the excessive proliferation of astrocytes. Cell cultures were maintained in a 5% CO2-humidified incubator at 37° C. for 14-21 days.
The cultured neurons were placed in the recording chamber with continuous perfusion of the bath solution consisting of (mM): 128 NaCl, 10 Glucose, 25 HEPES, 5 KCl, 2 CaCl2, 1 MgSO4, pH 7.3 adjusted with NaOH, and osmolarity ˜300 mOsm. For recording spontaneous firing under current clamp mode, pipettes were filled with an internal solution containing (in mM): 125 K-gluconate, 5 Na-phosphocreatine, 5 EGTA, 10 KCl, 10 HEPES, 4 Mg-ATP, 0.3 Na-GTP, 280-290 mOsm, pH 7.3 adjusted with KOH. Epileptiform activity in cultured neurons was induced either by 10 μM CTZ for 24 h, or 1 μM KA for 2 h, or 50 μM 4-AP for 2 h. The burst activity was defined as previously described. Qi et al., “Cyclothiazide induces robust epileptiform activity in rat hippocampal neurons both in vitro and in vivo” The Journal Of Physiology 571:605-618 (2006). In brief, at least five consecutive action potentials overlaying on top of the large depolarization shift (≥10 mV depolarization and ≥300 ms in duration).

Cl− channels = assay: Cl− current recording in cultured cortical neurons; format: cell-based, mouse; settings: blocker 100 μM
hippocampal slices = assay: Field potential recording of epileptiform activity in hippocampal slices (CA3 pyramidal layer); format: cell-based, mouse; settings: 100 μm (FIG. 10)
[2] = test system: GABAA-R reversal potential (EGABA); assay: Gramicidin-perforated whole-cell recording of GABAA-R reversal potential (EGABA) in CA3 pyramidal neurons; format: cell-based, mouse; settings: for positive EGABA shift induced by 0 Mg2+ aCSF: neonatal CA3 neurons; for EGABA in 0 Mg2+ aCSF: neonatal P8-P9, 0 Mg2+ aCSF; for EGABA in 0 Mg2+ aCSF / EGABA in normal aCSF: bumetanide 10 μM, VU0240551 10 μM, NaGcA 20 mM; for EGABA in normal aCSF: neonatal P8-P9
Method: To further test this idea, the GABAA-R reversal potential (EGABA), which governs GABA excitatory versus inhibitory function, was directly measured using gramicidin-perforated whole-cell recordings in neonatal mouse brain slices (e.g., P8-P9). As expected, epileptiform activity induced a large depolarizing shift in EGABA after treating hippocampal slices with 0 Mg^2+ aCSF for 1 h (aCSF: −59.2±2.0 mV, n=13; 0 Mg^2+: −48.2±1.1 mV, n=10). FIG. 16D. Treatment with bumetanide (Bum, 10 μM), a specific blocker for NKCC1 at low concentrations, induced a hyperpolarizing shift in EGABA (blue line) as compared to a control EGABA (dashed line). […]. […] Kaila et al., “Cation-chloride cotransporters in neuronal development, plasticity and disease” Nature Reviews. Neuroscience 15:637-654 (2014); Dzhala et al., “NKCC1 transporter facilitates seizures in the developing brain” Nature Medicine 11:1205-1213 (2005); and Loscher et al., “Cation-chloride cotransporters NKCC1 and KCC2 as potential targets for novel antiepileptic and antiepileptogenic treatments” Neuropharmacology 69:62-74 (2013). […] FIG. 16E, yellow line; Bum, −68.0±1.7 mV (n=9); 0 Mg^2++Bum, −50.2±1.4 mV (n=9); (p<0.002).

[3] = test system: GABA-induced neuronal activity; assay: Cell-attached recording of spike firing elicited by isoguvacine in CA3 pyramidal neurons; format: cell-based, mouse; settings: P8-9, isoguvacine 10 μM, 30 s
Method: Besides EGABA, the effects of different drugs on GABA-induced neuronal activity during epileptogenesis were investigated in neonatal animals (e.g., P8-9). To accurately measure GABA-induced neuronal activity, cell-attached recordings monitored spike firing elicited by local application of the GABAA-R agonist isoguvacine (10 μM, 30 s). Tyzio et al., “Maternal oxytocin triggers a transient inhibitory switch in GABA signaling in the fetal brain during delivery” Science 314:1788-1792 (2006). […] FIG. 16K, control, (n=32). […] FIG. 16K, 0 Mg^2+ (n=19). […] FIG. 16K; 0 Mg^2++Bum (n=19); and 0 Mg^2++VU (n=21). […] FIG. 16K; 0 Mg^2++NaGcA (n=18).

[4] = test system: KA induced neonatal seizure; assay: KA-induced neonatal seizure, in vivo EEG recording; parameters: species or system rat; settings: for reduction of relative EEG power: last 30 min of a 2-hr recording period after KA injection, neonatal
Method: For example, neonatal rats were administered gluconate to determine the effect on in vivo epileptic seizures in neonatal and adult animals. […] FIGS. 14A and 14B; Dzhala et al., “NKCC1 transporter facilitates seizures in the developing brain” Nature Medicine 11:1205-1213 (2005). […] FIGS. 14C and 14D.
To test the in vivo anti-epilepsy effects of gluconate in neonatal and adult rodents, P8-12 Sprague-Dawley rats or 2-month old male C57BL/6 mice were deeply anesthetized with pentobarbital sodium (50 mg/kg for neonatal rat and 100 mg/kg for adult mice, intraperitoneal injection). Two stainless steel screws (1 mm in diameter) were inserted in the skull above the cortex as EEG recording electrodes, one ground electrode as well as one reference electrode were located +1.8 mm anterior to bregma, ±0.5 mm lateral to the midline, and 1 mm below the cortical surface. All electrodes were attached to a micro-connector and fixed onto the skull with dental cement. After surgery, neonatal rats were returned to their mothers and allowed to recover for 2 days prior to subsequent EEG recording. The adult mice were single housed in order to prevent damage of the implanted electrodes and allowed to recover at least 5 days before EEG recording.
The baseline of EEG was recorded for 0.5-1 hr to allow the animal to adapt to the environment. Kainic acid (2 mg/kg) was administered intraperitoneally (i.p.) for neonatal epilepsy induction. D-gluconic acid sodium salt (2 g/kg) or 0.9% saline was injected i.p. 10 min after KA administration. Pentylenetetrazol (PTZ) was administered intraperitoneally for inducing a stable epileptic burst activity in adult mice, and D-gluconic acid sodium salt (1 g/kg and 2 g/kg) or 0.9% saline was injected i.p. 10 min before PTZ administration. Epileptiform activity was monitored for 1 hr after PTZ injection. Qian et al., “Epileptiform response of CA1 neurones to convulsant stimulation by cyclothiazide, kainic acid and pentylenetetrazol in anaesthetized rats” Seizure 20:312-319 (2011). After the experiment, animals were injected with diazepam to protect the animals from recurrent epilepsy.
Power was calculated in 1-min time windows by integrating the power of dominant frequency bands from 1 to 100 Hz (EEG band).

neonatal seizures = settings: infant babies, clinical trial (Pressler et al.); cited from earlier work
CLC-3 Cl− channels = target: T1, CLC-3 Cl− channels (Mus musculus, UniProt P51791); assay: Voltage-dependent outward rectifying Cl− currents in CA3 pyramidal neurons of hippocampal slices; format: cell-based; settings: P8-12 neonatal mice; 20 mM NaGcA, 10 mM Mg(GcA)2, 20 mM gluconic acid
T1 construct: CA3 pyramidal neurons of hippocampal slices from neonatal mice; from tissue; host or cells: acute hippocampal slices (CA3 pyramidal neurons), C57BL/6 mice
T1 sequence (P51791 1-818): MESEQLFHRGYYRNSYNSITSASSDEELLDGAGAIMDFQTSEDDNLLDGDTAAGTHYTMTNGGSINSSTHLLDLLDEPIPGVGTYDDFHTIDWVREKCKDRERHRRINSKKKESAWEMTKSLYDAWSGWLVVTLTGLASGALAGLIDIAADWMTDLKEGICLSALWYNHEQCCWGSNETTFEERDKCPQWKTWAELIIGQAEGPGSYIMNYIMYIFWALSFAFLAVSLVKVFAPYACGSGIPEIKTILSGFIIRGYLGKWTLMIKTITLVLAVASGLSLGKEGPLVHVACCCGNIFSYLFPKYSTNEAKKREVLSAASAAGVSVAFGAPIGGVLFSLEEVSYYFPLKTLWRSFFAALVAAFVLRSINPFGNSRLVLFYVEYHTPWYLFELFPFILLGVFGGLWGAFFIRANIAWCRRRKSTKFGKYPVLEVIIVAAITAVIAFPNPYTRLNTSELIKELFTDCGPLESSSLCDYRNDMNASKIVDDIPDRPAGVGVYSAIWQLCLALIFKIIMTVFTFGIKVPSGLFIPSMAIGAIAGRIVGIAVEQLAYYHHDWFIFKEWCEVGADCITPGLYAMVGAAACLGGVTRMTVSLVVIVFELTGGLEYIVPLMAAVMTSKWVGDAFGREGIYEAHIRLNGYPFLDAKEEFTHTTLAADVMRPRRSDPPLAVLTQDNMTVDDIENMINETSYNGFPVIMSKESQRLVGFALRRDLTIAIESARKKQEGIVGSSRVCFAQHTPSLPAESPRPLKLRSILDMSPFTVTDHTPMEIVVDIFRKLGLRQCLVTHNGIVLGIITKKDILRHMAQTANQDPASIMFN

O=S(=O)([O-])c1cc(N=C=S)ccc1C=Cc1ccc(N=C=S)cc1S(=O)(=O)[O-].[Na+].[Na+] [DIDS, 4,4′-Diisothiocyanato-2,2′-stilbenedisulfonic acid disodium salt, reference compound]
epileptiform activity induced by CTZ ([1]; disodium salt): significantly inhibited; also recorded: potently inhibited
Cl− currents (inhibition by classic Cl− channel blockers) (Cl− channels; disodium salt): significantly suppressed; also recorded: persistent inhibition

O=C(O)c1cccnc1Nc1cccc(C(F)(F)F)c1 [NFA, niflumic acid, reference compound]
epileptic activity in neonatal hippocampal slices (other Cl− channel blockers) (hippocampal slices): inhibit neonatal seizures

O=C(O)c1cc([N+](=O)[O-])ccc1NCCCc1ccccc1 [NPPB, 5-Nitro-2-(3-phenylpropylamino) benzoic acid, reference compound]
epileptiform activity induced by CTZ [1]: significantly inhibited; also recorded: potently inhibited
Cl− currents (inhibition by classic Cl− channel blockers) (Cl− channels): significantly suppressed; also recorded: inhibited
epileptic activity in neonatal hippocampal slices (other Cl− channel blockers) (hippocampal slices): inhibit neonatal seizures

Cc1csc(NC(=O)CSc2ccc(-c3ccccc3)nn2)n1 [VU0240551]
positive EGABA shift induced by 0 Mg2+ aCSF [2]: no effect
EGABA in 0 Mg2+ aCSF [2]: −48.9±1.3 mV
EGABA in normal aCSF [2]: −60.8±1.9 mV
spike activity elicited by isoguvacine after 0 Mg2+ treatment [3]: did not change

CCCCNc1cc(C(=O)O)cc(S(N)(=O)=O)c1Oc1ccccc1 [bumetanide]
epileptic seizure (burst) activity in EEG ([4]; P10-12, KA 2 mg/kg i.p., drug i.p. 10 min after KA: NaGcA 2 g/kg, phenobarbital 25 mg/kg, bumetanide 2 mg/kg): not as potent as gluconate
reduction of relative EEG power [4]: 54.3%
positive EGABA shift induced by 0 Mg2+ aCSF [2]: did not abolish
EGABA in 0 Mg2+ aCSF [2]: −50.2±1.4 mV
EGABA in normal aCSF [2]: −68.0±1.7 mV
spike activity elicited by isoguvacine after 0 Mg2+ treatment [3]: did not change
effect in treating neonatal seizure (clinical trial) (neonatal seizures): very limited effect
side effects (clinical trial) (neonatal seizures): severe side effects

O=C(O)[C@H](O)[C@@H](O)[C@H](O)[C@H](O)CO [gluconic acid]
Cl− current inhibition by gluconic acid with various counter ions (CLC-3 Cl− channels): equivalent Cl− current inhibition

CCC1(c2ccccc2)C(=O)NC(=O)NC1=O [phenobarbital, reference compound]
reduction of relative EEG power [4]: 35.5%

magnesium gluconate
Cl− current inhibition by gluconic acid with various counter ions (CLC-3 Cl− channels): equivalent Cl− current inhibition
